Data from US5202331A, “Therapeutic agent for dysuria comprising alpha-phenyl-alpha-pyridylalkanoic acid derivatives” (Fujisawa Pharmaceutical Co., Ltd., priority 1990, dated 1993).
In brackets after ≈: the same amount, converted by molar mass.

How the values were obtained:
[1] = system: urinary bladder contraction (hyperactive bladder, detrusor hyperreflexia); assay: Inhibition of urinary bladder contraction in the pressure-loaded hyperactive bladder model in rats; assay type: in vivo; conditions: Rattus norvegicus, intravenous, urethane-anesthetized male S.D. rats, hydrostatic pressure about 10 mmHg
Experimental: Male S.D. rats weighing 240-450 g were anesthetized with urethane (1.0 g/kg) s.c.. The urinary bladder was then exposed through a midline incision in the abdomen and the intravesical pressure was recorded. Thus, a balloon attached to one end of a stainless steel tube (1.2 mm in outer diameter, 5 cm in length) was inserted into the bladder through a small incision made in the bladder dome, while the other end of the tube was connected to a pressure transducer. The ureter was ligated and cut and a polyethylene cannula was inserted from the proximal cut end to drain off the urine.
Hyperactive bladder (detrusor hyperreflexia) was induced by water filling of the bladder. A hydrostatic pressure of about 10 mmHg was applied to the balloon in the bladder.
When the contractile response of the bladder to water pressure loading became steady, the test compound was administered intravenously.

[2] = system: voiding reflex bladder contraction; assay: Effect on voiding reflex bladder contraction in rats with the ureter ligated; assay type: in vivo; conditions: Rattus norvegicus, iv, voiding reflex rhythmic bladder contraction, into the jugular vein, urethane-anesthetized male S.D rats
Description: A midline incision was made in the abdomen of male S.D rats (body weight 250-350 g) under urethane (1.0 g/kg i.p.) anesthesia. A small incision was made in the bladder dome and one end of a polyethylene tube was inserted and, then, ligated. To the other end of the polyethylene tube was attached a three-way cock. An infusion pump was connected to one of the joints and a transducer was connected to another joint for measurement of the intravesical pressure. Physiological saline was then infused continuously into the bladder. After confirmation of steady voiding reflexes, the ureter was ligated immediately before the next voiding and the infusion of physiological saline was stopped. After the resulting rhythmic contractions became stable, the test compound was administered into the jugular vein to evaluate its effect.

[3] = system: isolated guinea pig bladder detrusor muscle; assay: Anticholinergic effect in the isolated guinea pig bladder (carbamylcholine-induced contraction); set-up: species or system male guinea pigs; conditions: Cavia porcellus, contractions induced with 10 μM carbamylcholine, Krebs solution
Experimental: Male guinea pigs weighing 400-700 g were fainted and killed by a blow on the occipital region. A bladder detrusor muscle specimen (15-20 mm long × 5 mm thick) was prepared by longitudinal section and suspended in a Magnus bath containing Krebs solution which was aerated with 95% O2 -5% CO2. Isotonic contractions were recorded through a tension transducer. The buffer solution was changed five times at 15-minute intervals. The equilibration time was […]. Contractions were induced with 10 μM carbamylcholine, and after the contractions became steady, the test compound was added to the Magnus bath and its anticholinergic effect was investigated.

[4] = Acute toxicity test; set-up: species or system rats (Crj:CD(SD) strain); conditions: rat, in vivo, 14 days observation, probit method
Experimental: Five rats (Crj:CD(SD) strain) of either sex were used per group. Solutions of the test compound were prepared as shown below and administered to rats intravenously or subcutaneously. The rats were then observed for 14 days. The LD50 values were calculated by the probit method. (Preparation of test solutions)
The test compound was dissolved in hydrochloric acid and the solution was adjusted to pH 6-7 with sodium hydrogen carbonate and diluted with physiological saline to the required concentrations.

## C[C@H](C[C@@](C(N)=O)(c1ccccc1)c1ccccn1)N(C)C (relative stereo) [test compound, (±)-(2R*,4R*)-4-Dimethylamino-2-phenyl-2-(2-pyridyl)-valeramide]
[1]
  ED30: 0.09 mg/kg
[2]
  ED50: 0.56 mg/kg
[3]
  IC50: 0.6 µg/mL (≈ 2.02 µM)
[4]; iv, Female
  LD50 at 336 h: 42.3 mg/kg
[4]; iv, Male
  LD50 at 336 h: 47.2 mg/kg
[4]; sc, Female
  LD50 at 336 h: 915 mg/kg
[4]; sc, Male
  LD50 at 336 h: 922 mg/kg
